Results taken from the NIST ThermoML archive (doi:10.1021/acs.jced.9b00283).

Experiment: xn = mol fraction of the nth substance listed
Settings: 100 kPa, Liquid, Pycnometric method

OCCCCO [1,4-butanediol] + CCn1cc[n+](C)c1.F[B-](F)(F)F
Settings | molar volume [m3/mol]
298.15 K, x1 = 0.19 | 0.0001368
298.15 K, x1 = 0.978 | 9.18e-05
303.15 K, x1 = 0.24 | 0.0001346
303.15 K, x1 = 0.962 | 9.26e-05
308.15 K, x1 = 0.251 | 0.0001345
308.15 K, x1 = 0.957 | 9.33e-05
313.15 K, x1 = 0.326 | 0.0001286
313.15 K, x1 = 0.944 | 9.04e-05

OCCCCO [1,4-butanediol] + CCn1cc[n+](C)c1.O=S(=O)([N-]S(=O)(=O)C(F)(F)F)C(F)(F)F
Settings | molar volume [m3/mol]
298.15 K, x1 = 0.177 | 0.0002253
298.15 K, x1 = 0.971 | 9.23e-05
303.15 K, x1 = 0.189 | 0.0002241
303.15 K, x1 = 0.968 | 9.31e-05
308.15 K, x1 = 0.217 | 0.00022
308.15 K, x1 = 0.962 | 9.36e-05
313.15 K, x1 = 0.233 | 0.0002181
313.15 K, x1 = 0.958 | 9.29e-05

OCCCCCO [1,5-pentanediol] + CCn1cc[n+](C)c1.F[B-](F)(F)F
Settings | molar volume [m3/mol]
303.15 K, x1 = 0.129 | 0.0001423
303.15 K, x1 = 0.982 | 0.0001069
308.15 K, x1 = 0.151 | 0.0001416
308.15 K, x1 = 0.977 | 0.0001075
313.15 K, x1 = 0.183 | 0.0001412
313.15 K, x1 = 0.97 | 0.0001062
318.15 K, x1 = 0.231 | 0.0001381
318.15 K, x1 = 0.969 | 0.0001064

OCCCCCO [1,5-pentanediol] + CCn1cc[n+](C)c1.O=S(=O)([N-]S(=O)(=O)C(F)(F)F)C(F)(F)F
Settings | molar volume [m3/mol]
298.15 K, x1 = 0.142 | 0.0002297
298.15 K, x1 = 0.995 | 0.0001075
303.15 K, x1 = 0.16 | 0.0002253
303.15 K, x1 = 0.992 | 0.0001086
308.15 K, x1 = 0.175 | 0.0002251
308.15 K, x1 = 0.987 | 0.0001088
313.15 K, x1 = 0.193 | 0.0002239
313.15 K, x1 = 0.982 | 0.0001095

OCCCO [propan-1,3-diol] + CCn1cc[n+](C)c1.O=S(=O)([N-]S(=O)(=O)C(F)(F)F)C(F)(F)F
Settings | molar volume [m3/mol]
298.15 K, x1 = 0.208 | 0.0002153
298.15 K, x1 = 0.977 | 7.48e-05
303.15 K, x1 = 0.226 | 0.0002124
303.15 K, x1 = 0.974 | 7.55e-05
308.15 K, x1 = 0.234 | 0.0002114
308.15 K, x1 = 0.971 | 7.61e-05
313.15 K, x1 = 0.259 | 0.0002063
313.15 K, x1 = 0.971 | 7.6e-05
